Results: patent US9663508B2, “Biaryl acyl-sulfonamide compounds as sodium channel inhibitors” (AMGEN INC., priority 2013, dated 2017)

Experiments:
[1] = target: human Nav1.7 (Homo sapiens (Human), UniProt Q15858); assay: Nav 1.7 in vitro PatchXpress (PX) assay; assay type: cell-based
[2] = target: human Nav 1.5 (Homo sapiens (Human), UniProt Q14524); assay: Nav 1.5 IonWorks Quattro (IWQ) in vitro assay; assay type: cell-based; settings: read-out: NAV 1.5 IWQ IC50
Sequence of human Nav 1.5 (Q14524 whole entry): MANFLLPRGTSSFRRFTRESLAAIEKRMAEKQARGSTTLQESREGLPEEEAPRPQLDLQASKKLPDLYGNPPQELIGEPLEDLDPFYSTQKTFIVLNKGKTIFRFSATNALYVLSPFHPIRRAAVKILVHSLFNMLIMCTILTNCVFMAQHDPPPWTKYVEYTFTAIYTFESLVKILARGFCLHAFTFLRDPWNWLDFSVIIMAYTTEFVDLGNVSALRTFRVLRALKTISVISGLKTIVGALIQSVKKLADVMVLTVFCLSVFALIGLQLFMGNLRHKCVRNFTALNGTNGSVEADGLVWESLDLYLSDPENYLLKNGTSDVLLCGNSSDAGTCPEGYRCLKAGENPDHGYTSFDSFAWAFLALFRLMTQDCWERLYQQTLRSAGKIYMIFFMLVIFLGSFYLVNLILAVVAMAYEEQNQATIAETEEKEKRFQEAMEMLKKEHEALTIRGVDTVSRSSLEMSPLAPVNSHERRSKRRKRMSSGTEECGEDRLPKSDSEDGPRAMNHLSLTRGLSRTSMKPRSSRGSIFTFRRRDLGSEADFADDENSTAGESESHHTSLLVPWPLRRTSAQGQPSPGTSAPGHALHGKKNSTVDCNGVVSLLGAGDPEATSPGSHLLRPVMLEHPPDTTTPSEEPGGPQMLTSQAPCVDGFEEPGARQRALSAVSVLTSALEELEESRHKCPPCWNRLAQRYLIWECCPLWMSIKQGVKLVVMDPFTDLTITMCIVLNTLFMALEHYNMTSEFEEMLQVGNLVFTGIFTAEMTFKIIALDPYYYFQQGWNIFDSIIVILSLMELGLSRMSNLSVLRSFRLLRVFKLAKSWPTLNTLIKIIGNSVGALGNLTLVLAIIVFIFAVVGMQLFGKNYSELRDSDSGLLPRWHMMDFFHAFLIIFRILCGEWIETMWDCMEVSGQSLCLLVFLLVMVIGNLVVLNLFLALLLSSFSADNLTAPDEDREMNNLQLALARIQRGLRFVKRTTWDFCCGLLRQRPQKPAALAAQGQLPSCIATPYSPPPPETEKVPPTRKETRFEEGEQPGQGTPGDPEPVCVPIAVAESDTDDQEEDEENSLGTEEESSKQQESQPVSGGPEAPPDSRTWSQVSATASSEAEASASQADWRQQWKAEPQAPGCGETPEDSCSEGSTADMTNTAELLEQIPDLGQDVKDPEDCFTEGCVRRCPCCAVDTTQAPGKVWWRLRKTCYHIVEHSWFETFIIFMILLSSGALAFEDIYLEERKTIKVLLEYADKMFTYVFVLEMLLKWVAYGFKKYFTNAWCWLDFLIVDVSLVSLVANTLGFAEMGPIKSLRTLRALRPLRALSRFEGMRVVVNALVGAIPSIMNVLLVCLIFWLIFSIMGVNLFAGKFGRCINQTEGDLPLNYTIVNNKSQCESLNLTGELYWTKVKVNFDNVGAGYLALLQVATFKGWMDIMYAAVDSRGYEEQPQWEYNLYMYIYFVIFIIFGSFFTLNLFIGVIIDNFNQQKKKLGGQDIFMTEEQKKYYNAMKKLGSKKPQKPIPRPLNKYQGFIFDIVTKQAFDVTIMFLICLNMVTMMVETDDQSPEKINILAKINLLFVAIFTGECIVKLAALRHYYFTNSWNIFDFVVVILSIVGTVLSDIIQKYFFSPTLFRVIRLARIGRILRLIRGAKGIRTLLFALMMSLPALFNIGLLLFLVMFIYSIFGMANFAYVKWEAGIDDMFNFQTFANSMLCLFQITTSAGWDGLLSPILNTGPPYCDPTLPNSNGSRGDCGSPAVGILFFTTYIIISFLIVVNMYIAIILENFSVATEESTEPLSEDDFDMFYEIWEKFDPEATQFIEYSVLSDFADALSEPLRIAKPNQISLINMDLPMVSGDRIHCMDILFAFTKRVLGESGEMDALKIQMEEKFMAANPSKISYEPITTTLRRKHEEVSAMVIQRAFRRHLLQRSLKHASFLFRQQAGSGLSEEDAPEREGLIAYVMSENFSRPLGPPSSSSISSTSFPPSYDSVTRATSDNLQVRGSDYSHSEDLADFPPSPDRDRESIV

Sequence of human Nav1.7 (Q15858 whole entry): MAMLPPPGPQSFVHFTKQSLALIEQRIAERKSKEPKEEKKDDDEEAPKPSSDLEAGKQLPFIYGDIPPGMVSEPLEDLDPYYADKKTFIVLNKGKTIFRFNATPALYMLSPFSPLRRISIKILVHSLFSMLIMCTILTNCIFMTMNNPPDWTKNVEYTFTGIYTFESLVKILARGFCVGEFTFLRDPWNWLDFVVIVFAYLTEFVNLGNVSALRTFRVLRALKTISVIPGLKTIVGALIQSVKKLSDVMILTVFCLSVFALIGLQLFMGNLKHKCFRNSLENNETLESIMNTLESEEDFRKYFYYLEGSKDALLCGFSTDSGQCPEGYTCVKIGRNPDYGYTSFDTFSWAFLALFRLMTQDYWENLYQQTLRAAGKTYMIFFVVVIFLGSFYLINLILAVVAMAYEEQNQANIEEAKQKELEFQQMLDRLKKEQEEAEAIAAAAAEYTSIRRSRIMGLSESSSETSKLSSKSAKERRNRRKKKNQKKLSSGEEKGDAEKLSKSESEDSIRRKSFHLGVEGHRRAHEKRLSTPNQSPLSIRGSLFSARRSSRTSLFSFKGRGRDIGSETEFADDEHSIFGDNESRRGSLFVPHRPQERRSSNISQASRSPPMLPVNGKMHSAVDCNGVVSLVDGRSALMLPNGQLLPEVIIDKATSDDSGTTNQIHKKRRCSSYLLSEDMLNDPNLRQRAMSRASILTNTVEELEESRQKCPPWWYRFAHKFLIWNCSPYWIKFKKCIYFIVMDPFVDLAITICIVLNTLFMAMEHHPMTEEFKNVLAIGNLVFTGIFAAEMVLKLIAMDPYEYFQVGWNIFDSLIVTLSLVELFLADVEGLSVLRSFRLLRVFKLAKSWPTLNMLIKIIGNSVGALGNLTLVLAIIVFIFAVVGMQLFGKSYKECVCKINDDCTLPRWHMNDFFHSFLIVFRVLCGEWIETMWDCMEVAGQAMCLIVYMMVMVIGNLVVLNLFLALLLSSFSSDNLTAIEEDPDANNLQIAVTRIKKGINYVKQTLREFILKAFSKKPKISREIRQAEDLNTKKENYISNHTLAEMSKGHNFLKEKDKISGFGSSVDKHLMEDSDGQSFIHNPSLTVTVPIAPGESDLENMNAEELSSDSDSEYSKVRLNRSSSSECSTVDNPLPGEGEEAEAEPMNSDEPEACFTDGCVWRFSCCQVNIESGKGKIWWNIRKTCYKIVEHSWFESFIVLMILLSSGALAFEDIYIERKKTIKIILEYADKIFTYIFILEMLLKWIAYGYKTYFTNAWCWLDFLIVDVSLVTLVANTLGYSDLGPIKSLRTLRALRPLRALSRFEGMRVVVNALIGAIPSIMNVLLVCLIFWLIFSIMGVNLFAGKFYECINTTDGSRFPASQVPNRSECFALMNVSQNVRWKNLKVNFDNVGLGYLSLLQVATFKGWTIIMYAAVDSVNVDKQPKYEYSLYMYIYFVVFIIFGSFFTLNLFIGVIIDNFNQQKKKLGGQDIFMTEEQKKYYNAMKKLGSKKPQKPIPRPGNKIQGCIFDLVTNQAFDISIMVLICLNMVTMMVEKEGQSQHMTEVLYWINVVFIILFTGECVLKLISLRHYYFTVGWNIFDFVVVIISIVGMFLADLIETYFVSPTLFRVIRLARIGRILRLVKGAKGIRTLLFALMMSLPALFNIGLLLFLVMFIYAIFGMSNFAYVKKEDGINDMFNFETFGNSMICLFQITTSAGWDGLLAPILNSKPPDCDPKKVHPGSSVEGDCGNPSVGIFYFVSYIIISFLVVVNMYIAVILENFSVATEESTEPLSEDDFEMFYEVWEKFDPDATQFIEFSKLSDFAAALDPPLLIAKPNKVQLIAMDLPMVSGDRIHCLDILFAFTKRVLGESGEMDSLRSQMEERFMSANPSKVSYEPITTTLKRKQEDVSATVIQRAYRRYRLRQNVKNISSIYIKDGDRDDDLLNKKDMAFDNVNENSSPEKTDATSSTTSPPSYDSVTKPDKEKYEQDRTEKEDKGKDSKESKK

Row | IC50 [1] [nM] | Compound | IC50 [2] [nM]
1 | 82.8 | Cc1cc(C(=O)NS(C)(=O)=O)c(F)cc1-c1cnc(Oc2c(Cl)cc(F)cc2Cl)c(Cl)c1 [Example 644, 4-(5-chloro-6-(2,6-dichloro-4-fluorophenoxy)-3-pyridinyl)-2-fluoro-5-methyl-N-(methylsulfonyl)benzamide] | > 3000
2 | 73.5 | CC[C@H](Oc1ncc(-c2cc(F)c(C(=O)NS(C)(=O)=O)cc2C)cc1Cl)c1ccc(F)cc1 [Example 651, 4-(5-chloro-6-(((1S)-1-(4-fluorophenyl)propyl)oxy)-3-pyridinyl)-2-fluoro-5-methyl-N-(methylsulfonyl)benzamide] | > 3000
3 | 88.2 | Cc1cc(C(=O)NS(C)(=O)=O)c(F)cc1-c1cnc(Oc2ccc(C)c3c2CCC3)c(Cl)c1 [Example 662, 4-(5-chloro-6-((7-methyl-2,3-dihydro-1H-inden-4-yl)oxy)-3-pyridinyl)-2-fluoro-5-methyl-N-(methylsulfonyl)benzamide] | 3770
4 | 67.5 | Cc1cc(C(=O)NS(C)(=O)=O)c(F)cc1-c1cnc(Oc2ccc(F)c3c2CCC3)c(Cl)c1 [Example 672, 4-(5-chloro-6-((7-fluoro-2,3-dihydro-1H-inden-4-yl)oxy)-3-pyridinyl)-2-fluoro-5-methyl-N-(methylsulfonyl)benzamide] | > 10000
5 | 81.5 | Cc1cc(Cl)c(Oc2ncc(-c3cc(F)c(C(=O)NS(C)(=O)=O)cc3C)cc2Cl)cc1C [Example 632, 4-(5-chloro-6-(2-chloro-4,5-dimethylphenoxy)-3-pyridinyl)-2-fluoro-5-methyl-N-(methylsulfonyl)benzamide] | > 3000
6 | 75.2 | Cc1cc(C(=O)NS(C)(=O)=O)c(F)cc1-c1cnc(Oc2ccc(F)c(F)c2F)c(Cl)c1 [Example 615, 4-(5-chloro-6-(2,3,4-trifluorophenoxy)-3-pyridinyl)-2-fluoro-5-methyl-N-(methylsulfonyl)benzamide] | > 3000
7 | 97.3 | CCOc1ccc(Oc2ncc(-c3cc(F)c(C(=O)NS(C)(=O)=O)cc3C)cc2Cl)cc1F [Example 645, 4-(5-chloro-6-(4-ethoxy-3-fluorophenoxy)-3-pyridinyl)-2-fluoro-5-methyl-N-(methylsulfonyl)benzamide] | > 3000
8 | 68 | Cc1cc(Br)ccc1Oc1ncc(-c2cc(F)c(C(=O)NS(C)(=O)=O)cc2C)cc1Cl [Example 614, 4-(6-(4-bromo-2-methylphenoxy)-5-chloro-3-pyridinyl)-2-fluoro-5-methyl-N-(methylsulfonyl)benzamide] | > 3000
9 | 69.1 | Cc1cc(C(=O)NS(C)(=O)=O)c(F)cc1-c1cnc(Oc2c(Cl)cccc2Cl)c(Cl)c1 [Example 627, 4-(5-chloro-6-(2,6-dichlorophenoxy)-3-pyridinyl)-2-fluoro-5-methyl-N-(methylsulfonyl)benzamide] | > 3000
10 | 91.3 | COc1cc(C(=O)NS(C)(=O)=O)c(F)cc1-c1cnc(Oc2cc(F)cc(F)c2F)c(Cl)c1 [Example 700, 4-(5-chloro-6-(2,3,5-trifluorophenoxy)-3-pyridinyl)-2-fluoro-5-methoxy-N-(methylsulfonyl)benzamide] | > 3000
11 | 47.2 | Cc1cc(Cl)cc(Cl)c1Oc1ncc(-c2ccc(C(=O)NS(C)(=O)=O)cc2OC(F)F)cc1Cl [Example 585, 4-(5-chloro-6-(2,4-dichloro-6-methylphenoxy)-3-pyridinyl)-3-(difluoromethoxy)-N-(methylsulfonyl)benzamide] | 289
12 | 88.3 | Cc1cc(C(=O)NS(C)(=O)=O)c(F)cc1-c1cnc(Oc2ccccc2-c2ccccc2)c(Cl)c1 [Example 612, 4-(6-(2-biphenylyloxy)-5-chloro-3-pyridinyl)-2-fluoro-5-methyl-N-(methylsulfonyl)benzamide] | > 3000
13 | 83.6 | Cc1cc(C(=O)NS(C)(=O)=O)c(F)cc1-c1cnc(Oc2c(Cl)ccc(C)c2F)c(Cl)c1 [Example 670, 4-(5-chloro-6-(6-chloro-2-fluoro-3-methylphenoxy)-3-pyridinyl)-2-fluoro-5-methyl-N-(methylsulfonyl)benzamide] | > 10000
14 | 66.1 | CS(=O)(=O)NC(=O)c1cc(Cl)c(-c2cnc(Oc3c(Cl)cccc3Cl)c(Cl)c2)cc1F [Example 592, 5-chloro-4-(5-chloro-6-(2,6-dichlorophenoxy)-3-pyridinyl)-2-fluoro-N-(methylsulfonyl)benzamide] | > 3000
15 | 62.7 | CS(=O)(=O)NC(=O)c1cc(Cl)c(-c2cnc(Oc3cc(F)cc(F)c3Cl)c(Cl)c2)cc1F [Example 599, 5-chloro-4-(5-chloro-6-(2-chloro-3,5-difluorophenoxy)-3-pyridinyl)-2-fluoro-N-(methylsulfonyl)benzamide] | > 3000
16 | 87.3 | Cc1cc(C(=O)NS(C)(=O)=O)c(F)cc1-c1cnc(Oc2c(F)cc(F)cc2F)c(Cl)c1 [Example 622, 4-(5-chloro-6-(2,4,6-trifluorophenoxy)-3-pyridinyl)-2-fluoro-5-methyl-N-(methylsulfonyl)benzamide] | > 3000
17 | 76.1 | Cc1cc(C(=O)NS(C)(=O)=O)c(F)cc1-c1cnc(Oc2ccc(C(C)(C)C)cc2Cl)c(Cl)c1 [Example 611, 4-(6-(4-tert-butyl-2-chlorophenoxy)-5-chloro-3-pyridinyl)-2-fluoro-5-methyl-N-(methylsulfonyl)benzamide] | > 3000
18 | 82.3 | CS(=O)(=O)NC(=O)c1cc(Cl)c(-c2cnc(Oc3ccc(F)c(F)c3F)c(Cl)c2)cc1F [Example 588, 5-chloro-4-(5-chloro-6-(2,3,4-trifluorophenoxy)-3-pyridinyl)-2-fluoro-N-(methylsulfonyl)benzamide] | > 3000
19 | 66 | Cc1cc(C(=O)NS(C)(=O)=O)c(F)cc1-c1cnc(Oc2c(C)cc(Cl)cc2C)c(Cl)c1 [Example 669, 4-(5-chloro-6-(4-chloro-2,6-dimethylphenoxy)-3-pyridinyl)-2-fluoro-5-methyl-N-(methylsulfonyl)benzamide] | 3610
20 | 49.7 | Cc1cc(C(=O)NS(C)(=O)=O)c(F)cc1-c1cnc(Oc2c(F)cc(F)cc2Cl)c(Cl)c1 [Example 666, 4-(5-chloro-6-(2-chloro-4,6-difluorophenoxy)-3-pyridinyl)-2-fluoro-5-methyl-N-(methylsulfonyl)benzamide] | 3410
21 | 98.6 | Cc1cc(Cl)ccc1COc1ncc(-c2cc(F)c(C(=O)NS(C)(=O)=O)cc2C)cc1Cl [Example 681, 4-(5-chloro-6-((4-chloro-2-methylbenzyl)oxy)-3-pyridinyl)-2-fluoro-5-methyl-N-(methylsulfonyl)benzamide] | > 4900

Row | Compound | IC50 [1] [nM] | IC50 [2] [nM]
22 | Cc1cc(C(=O)NS(C)(=O)=O)c(F)cc1-c1cnc(O[C@H](C)c2cc(F)c(F)cc2F)c(Cl)c1 [Example 660, 4-(5-chloro-6-((1R)-1-(2,4,5-trifluorophenyl)ethoxy)-3-pyridinyl)-2-fluoro-5-methyl-N-(methylsulfonyl)benzamide, 4-(5-chloro-6-((1S)-1-(2,4,5-trifluorophenyl)ethoxy)-3-pyridinyl)-2-fluoro-5-methyl-N-(methylsulfonyl)benzamide] | 92.5 | 6440
23 | Cc1cc(C(=O)NS(C)(=O)=O)c(F)cc1-c1cnc(O[C@](C)(c2ccccc2)C(F)(F)F)c(Cl)c1 [Example 587, 4-(5-chloro-6-((1R)-2,2,2-trifluoro-1-methyl-1-phenylethoxy)-3-pyridinyl)-2-fluoro-5-methyl-N-(methylsulfonyl)benzamide, 4-(5-chloro-6-((1S)-2,2,2-trifluoro-1-methyl-1-phenylethoxy)-3-pyridinyl)-2-fluoro-5-methyl-N-(methylsulfonyl)benzamide] | 81.5 | > 3000
24 | Cc1cc(C(=O)NS(C)(=O)=O)c(F)cc1-c1cnc(N2CCC[C@@H]2c2cccc(Cl)c2)c(Cl)c1 [Example 656, 4-(5-chloro-6-((2R)-2-(3-chlorophenyl)-1-pyrrolidinyl)-3-pyridinyl)-2-fluoro-5-methyl-N-(methylsulfonyl)benzamide, 4-(5-chloro-6-((2S)-2-(3-chlorophenyl)-1-pyrrolidinyl)-3-pyridinyl)-2-fluoro-5-methyl-N-(methylsulfonyl)benzamide] | 73.8 | > 3000
25 | CC(C)[C@@H](Oc1ncc(-c2cc(F)c(C(=O)NS(C)(=O)=O)cc2Cl)cc1Cl)c1ccccc1 [Example 594, 5-chloro-4-(5-chloro-6-(((1R)-2-methyl-1-phenylpropyl)oxy)-3-pyridinyl)-2-fluoro-N-(methylsulfonyl)benzamide, 5-chloro-4-(5-chloro-6-(((1S)-2-methyl-1-phenylpropyl)oxy)-3-pyridinyl)-2-fluoro-N-(methylsulfonyl)benzamide] | 48.8 | > 3000
26 | Cc1cc(C(=O)NS(C)(=O)=O)c(F)cc1-c1cnc(O[C@H](C)c2c(F)cc(F)cc2F)c(Cl)c1 [Example 661, 4-(5-chloro-6-((1R)-1-(2,4,6-trifluorophenyl)ethoxy)-3-pyridinyl)-2-fluoro-5-methyl-N-(methylsulfonyl)benzamide, 4-(5-chloro-6-((1S)-1-(2,4,6-trifluorophenyl)ethoxy)-3-pyridinyl)-2-fluoro-5-methyl-N-(methylsulfonyl)benzamide] | 76.9 | > 10000
27 | COc1cc(C(=O)NS(C)(=O)=O)c(F)cc1-c1cnc(O[C@H](C)c2ccccc2)c(Cl)c1 [Example 696, 4-(5-chloro-6-((1R)-1-phenylethoxy)-3-pyridinyl)-2-fluoro-5-methoxy-N-(methylsulfonyl)benzamide, 4-(5-chloro-6-((1S)-1-phenylethoxy)-3-pyridinyl)-2-fluoro-5-methoxy-N-(methylsulfonyl)benzamide] | 93 | > 3000
28 | CS(=O)(=O)NC(=O)c1cc(Cl)c(-c2cnc(Oc3cc(F)cc(F)c3F)c(Cl)c2)cc1F [Example 589, 5-chloro-4-(5-chloro-6-(2,3,5-trifluorophenoxy)-3-pyridinyl)-2-fluoro-N-(methylsulfonyl)benzamide] | 49.9 | > 3000
